The target of one test is T1, Streptokinase A (Streptococcus pyogenes serotype M1, UniProt P10520).
T1 sequence (P10520 whole entry): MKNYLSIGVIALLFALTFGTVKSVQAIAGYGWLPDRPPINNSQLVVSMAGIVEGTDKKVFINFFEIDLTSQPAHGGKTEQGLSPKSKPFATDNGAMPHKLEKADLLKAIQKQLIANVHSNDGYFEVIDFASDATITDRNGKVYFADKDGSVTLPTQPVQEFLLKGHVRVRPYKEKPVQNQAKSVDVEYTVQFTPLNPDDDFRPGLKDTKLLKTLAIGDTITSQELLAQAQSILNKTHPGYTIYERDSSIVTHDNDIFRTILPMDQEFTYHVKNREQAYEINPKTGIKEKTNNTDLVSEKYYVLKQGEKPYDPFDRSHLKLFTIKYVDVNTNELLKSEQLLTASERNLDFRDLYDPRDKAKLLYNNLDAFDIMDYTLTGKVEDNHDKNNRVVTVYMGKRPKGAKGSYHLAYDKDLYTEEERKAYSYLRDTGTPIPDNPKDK
Put plainly: S. pyogenes streptokinase expression inhibitors, potency, dose response, plasminogen activation absorbance, OD405 (AID 1914).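 Also: secreted streptokinase activity via plasminogen activation per viability signal from cell pellet.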 Format: functional, Streptococcus pyogenes M1 GAS.

The target in test [1] is T2, Sentrin-specific protease 7 (Homo sapiens, UniProt Q9BQF6).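 Also: Luminescence-based dose-response confirmation of ultra-high-throughput screening hits, measuring inhibition of SENP7.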
T2 sequence (Q9BQF6 whole entry): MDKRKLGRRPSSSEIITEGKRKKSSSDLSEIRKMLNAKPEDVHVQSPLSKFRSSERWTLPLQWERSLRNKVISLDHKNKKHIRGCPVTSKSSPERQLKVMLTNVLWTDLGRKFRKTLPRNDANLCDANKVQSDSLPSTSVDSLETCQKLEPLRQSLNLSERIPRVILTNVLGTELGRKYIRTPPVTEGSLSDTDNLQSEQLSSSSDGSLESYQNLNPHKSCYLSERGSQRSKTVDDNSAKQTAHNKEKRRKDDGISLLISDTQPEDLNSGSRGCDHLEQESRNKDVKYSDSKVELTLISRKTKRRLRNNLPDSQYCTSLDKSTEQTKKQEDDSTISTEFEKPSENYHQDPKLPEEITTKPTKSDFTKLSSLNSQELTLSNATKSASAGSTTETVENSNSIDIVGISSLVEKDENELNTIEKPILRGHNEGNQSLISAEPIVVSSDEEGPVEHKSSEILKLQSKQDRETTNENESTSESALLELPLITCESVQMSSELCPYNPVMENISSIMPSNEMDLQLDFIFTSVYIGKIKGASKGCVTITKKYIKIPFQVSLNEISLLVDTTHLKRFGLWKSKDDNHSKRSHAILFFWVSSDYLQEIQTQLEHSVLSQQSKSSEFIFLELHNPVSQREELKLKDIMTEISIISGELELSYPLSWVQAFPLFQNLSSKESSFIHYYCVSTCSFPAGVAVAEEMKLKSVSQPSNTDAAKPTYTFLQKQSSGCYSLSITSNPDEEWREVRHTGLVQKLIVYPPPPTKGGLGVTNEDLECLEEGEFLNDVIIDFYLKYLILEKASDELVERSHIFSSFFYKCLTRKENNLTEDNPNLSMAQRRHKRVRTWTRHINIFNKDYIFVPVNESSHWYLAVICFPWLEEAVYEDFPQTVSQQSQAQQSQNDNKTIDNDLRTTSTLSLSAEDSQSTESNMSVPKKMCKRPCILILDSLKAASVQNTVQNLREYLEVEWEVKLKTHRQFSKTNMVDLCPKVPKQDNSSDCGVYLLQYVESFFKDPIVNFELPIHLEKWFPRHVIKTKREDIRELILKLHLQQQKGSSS
The class given is functional.

Test [2] deals with T3, Sentrin-specific protease 8 (Homo sapiens, UniProt Q96LD8).
T3 sequence (Q96LD8 whole entry): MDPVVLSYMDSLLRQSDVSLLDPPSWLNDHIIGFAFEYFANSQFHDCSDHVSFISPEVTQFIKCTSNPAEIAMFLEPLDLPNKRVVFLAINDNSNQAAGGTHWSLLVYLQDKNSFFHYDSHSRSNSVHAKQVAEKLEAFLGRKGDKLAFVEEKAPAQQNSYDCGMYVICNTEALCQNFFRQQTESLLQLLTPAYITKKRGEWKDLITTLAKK
The class given is functional.

The target of test [3] is T4, Long-chain-fatty-acid--AMP ligase FadD28 (Mycobacterium tuberculosis, UniProt P9WQ59).
T4 sequence (P9WQ59 whole entry): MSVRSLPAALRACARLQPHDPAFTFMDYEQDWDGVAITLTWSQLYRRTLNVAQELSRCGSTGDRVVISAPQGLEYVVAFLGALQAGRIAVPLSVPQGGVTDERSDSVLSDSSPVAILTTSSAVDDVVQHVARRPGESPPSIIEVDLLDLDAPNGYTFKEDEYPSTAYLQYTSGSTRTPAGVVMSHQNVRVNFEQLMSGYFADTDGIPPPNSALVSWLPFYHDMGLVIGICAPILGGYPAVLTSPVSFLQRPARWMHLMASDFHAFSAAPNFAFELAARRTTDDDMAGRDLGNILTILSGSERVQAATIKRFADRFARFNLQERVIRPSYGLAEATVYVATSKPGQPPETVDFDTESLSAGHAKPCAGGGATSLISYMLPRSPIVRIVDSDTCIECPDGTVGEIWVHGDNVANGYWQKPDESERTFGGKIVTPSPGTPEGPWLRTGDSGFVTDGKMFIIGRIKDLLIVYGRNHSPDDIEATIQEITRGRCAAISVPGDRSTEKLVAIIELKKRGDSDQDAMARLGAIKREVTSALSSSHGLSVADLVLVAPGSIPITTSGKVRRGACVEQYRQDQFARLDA
As to the kind of experiment: Fluorescence polarization aasay to screen for inhibitors that compete for the binding of FadD28 to a bisubstrate Measured in Biochemical System Using Plate Reader - 2147-01_Inhibitor_Dose_CherryPick_Activity. The class given is functional, Mycobacterium tuberculosis H37Rv. In general terms: Polarisation of emitted light reports the rotation of a fluorescent probe.

For test [4], the target named is RAC-gamma serine/threonine-protein kinase (Homo sapiens, UniProt Q9Y243). The class given is functional.
RAC-gamma serine/threonine-protein kinase, sequence (Q9Y243 whole entry): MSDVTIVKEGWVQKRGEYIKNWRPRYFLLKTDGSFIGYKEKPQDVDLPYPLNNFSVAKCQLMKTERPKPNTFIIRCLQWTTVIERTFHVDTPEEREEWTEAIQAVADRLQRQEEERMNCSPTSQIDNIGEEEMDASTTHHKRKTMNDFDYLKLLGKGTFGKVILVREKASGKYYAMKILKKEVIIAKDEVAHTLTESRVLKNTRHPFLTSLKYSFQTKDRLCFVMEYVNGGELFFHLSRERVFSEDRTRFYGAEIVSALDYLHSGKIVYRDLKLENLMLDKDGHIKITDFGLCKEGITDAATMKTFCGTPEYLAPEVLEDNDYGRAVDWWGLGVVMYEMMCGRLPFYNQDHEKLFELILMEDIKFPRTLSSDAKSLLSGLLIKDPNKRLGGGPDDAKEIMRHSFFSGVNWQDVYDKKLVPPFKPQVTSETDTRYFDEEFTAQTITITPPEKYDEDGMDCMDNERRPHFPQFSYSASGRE
Test [5] deals with Serine/threonine-protein kinase 17A (Homo sapiens, UniProt Q9UEE5). Format: functional.
Serine/threonine-protein kinase 17A, sequence (Q9UEE5 whole entry): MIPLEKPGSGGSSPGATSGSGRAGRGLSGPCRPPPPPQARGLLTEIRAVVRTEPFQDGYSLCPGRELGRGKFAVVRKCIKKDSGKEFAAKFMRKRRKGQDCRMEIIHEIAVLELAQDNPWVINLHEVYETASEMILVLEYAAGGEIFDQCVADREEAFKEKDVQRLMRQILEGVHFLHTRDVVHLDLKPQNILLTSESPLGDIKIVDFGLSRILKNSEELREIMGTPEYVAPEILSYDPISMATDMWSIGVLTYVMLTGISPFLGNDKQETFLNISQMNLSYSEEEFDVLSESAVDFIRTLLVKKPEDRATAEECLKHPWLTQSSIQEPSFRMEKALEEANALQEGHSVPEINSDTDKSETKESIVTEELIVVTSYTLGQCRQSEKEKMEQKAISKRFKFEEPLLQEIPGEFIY
In the next test the target is Misshapen-like kinase 1 (Homo sapiens, UniProt Q8N4C8). The class given is functional.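 Also: kinome panel screen with MINK as the panel member.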
Misshapen-like kinase 1, sequence (Q8N4C8 whole entry): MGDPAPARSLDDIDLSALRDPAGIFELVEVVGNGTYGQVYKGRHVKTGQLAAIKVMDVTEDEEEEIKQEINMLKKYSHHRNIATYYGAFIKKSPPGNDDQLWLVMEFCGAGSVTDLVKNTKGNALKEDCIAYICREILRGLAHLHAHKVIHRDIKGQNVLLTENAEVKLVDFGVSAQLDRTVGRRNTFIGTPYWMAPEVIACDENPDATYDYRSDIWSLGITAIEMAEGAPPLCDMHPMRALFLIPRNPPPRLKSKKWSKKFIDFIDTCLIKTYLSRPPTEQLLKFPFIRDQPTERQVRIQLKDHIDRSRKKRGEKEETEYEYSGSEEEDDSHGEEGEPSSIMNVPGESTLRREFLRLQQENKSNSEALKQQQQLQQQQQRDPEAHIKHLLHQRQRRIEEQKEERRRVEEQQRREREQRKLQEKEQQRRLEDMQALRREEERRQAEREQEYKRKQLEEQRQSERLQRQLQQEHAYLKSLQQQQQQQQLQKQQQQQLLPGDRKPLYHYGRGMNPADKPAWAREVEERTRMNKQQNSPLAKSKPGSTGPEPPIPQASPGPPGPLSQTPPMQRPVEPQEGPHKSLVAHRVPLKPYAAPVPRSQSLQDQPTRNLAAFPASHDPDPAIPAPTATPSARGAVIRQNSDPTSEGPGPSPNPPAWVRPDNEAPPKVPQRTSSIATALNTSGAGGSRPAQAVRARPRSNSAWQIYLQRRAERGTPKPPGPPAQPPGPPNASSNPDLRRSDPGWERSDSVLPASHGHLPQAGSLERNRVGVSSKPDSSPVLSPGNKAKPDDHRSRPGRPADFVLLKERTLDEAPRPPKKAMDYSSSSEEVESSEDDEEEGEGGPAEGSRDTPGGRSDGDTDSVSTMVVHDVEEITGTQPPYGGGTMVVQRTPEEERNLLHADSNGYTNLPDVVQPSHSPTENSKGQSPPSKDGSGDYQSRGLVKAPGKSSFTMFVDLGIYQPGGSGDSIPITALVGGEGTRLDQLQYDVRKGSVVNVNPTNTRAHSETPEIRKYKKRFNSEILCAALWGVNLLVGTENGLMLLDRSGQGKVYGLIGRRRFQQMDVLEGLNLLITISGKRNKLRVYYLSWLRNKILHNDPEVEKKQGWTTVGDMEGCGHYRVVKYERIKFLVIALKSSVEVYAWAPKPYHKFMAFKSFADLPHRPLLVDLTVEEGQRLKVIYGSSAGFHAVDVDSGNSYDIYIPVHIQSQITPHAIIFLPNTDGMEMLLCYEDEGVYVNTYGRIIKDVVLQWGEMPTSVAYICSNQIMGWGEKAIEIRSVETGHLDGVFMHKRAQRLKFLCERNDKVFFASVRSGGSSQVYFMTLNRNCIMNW
In test [6] the target is STE20-like serine/threonine-protein kinase (Homo sapiens, UniProt Q9H2G2). Format: functional.
STE20-like serine/threonine-protein kinase, sequence (Q9H2G2 whole entry): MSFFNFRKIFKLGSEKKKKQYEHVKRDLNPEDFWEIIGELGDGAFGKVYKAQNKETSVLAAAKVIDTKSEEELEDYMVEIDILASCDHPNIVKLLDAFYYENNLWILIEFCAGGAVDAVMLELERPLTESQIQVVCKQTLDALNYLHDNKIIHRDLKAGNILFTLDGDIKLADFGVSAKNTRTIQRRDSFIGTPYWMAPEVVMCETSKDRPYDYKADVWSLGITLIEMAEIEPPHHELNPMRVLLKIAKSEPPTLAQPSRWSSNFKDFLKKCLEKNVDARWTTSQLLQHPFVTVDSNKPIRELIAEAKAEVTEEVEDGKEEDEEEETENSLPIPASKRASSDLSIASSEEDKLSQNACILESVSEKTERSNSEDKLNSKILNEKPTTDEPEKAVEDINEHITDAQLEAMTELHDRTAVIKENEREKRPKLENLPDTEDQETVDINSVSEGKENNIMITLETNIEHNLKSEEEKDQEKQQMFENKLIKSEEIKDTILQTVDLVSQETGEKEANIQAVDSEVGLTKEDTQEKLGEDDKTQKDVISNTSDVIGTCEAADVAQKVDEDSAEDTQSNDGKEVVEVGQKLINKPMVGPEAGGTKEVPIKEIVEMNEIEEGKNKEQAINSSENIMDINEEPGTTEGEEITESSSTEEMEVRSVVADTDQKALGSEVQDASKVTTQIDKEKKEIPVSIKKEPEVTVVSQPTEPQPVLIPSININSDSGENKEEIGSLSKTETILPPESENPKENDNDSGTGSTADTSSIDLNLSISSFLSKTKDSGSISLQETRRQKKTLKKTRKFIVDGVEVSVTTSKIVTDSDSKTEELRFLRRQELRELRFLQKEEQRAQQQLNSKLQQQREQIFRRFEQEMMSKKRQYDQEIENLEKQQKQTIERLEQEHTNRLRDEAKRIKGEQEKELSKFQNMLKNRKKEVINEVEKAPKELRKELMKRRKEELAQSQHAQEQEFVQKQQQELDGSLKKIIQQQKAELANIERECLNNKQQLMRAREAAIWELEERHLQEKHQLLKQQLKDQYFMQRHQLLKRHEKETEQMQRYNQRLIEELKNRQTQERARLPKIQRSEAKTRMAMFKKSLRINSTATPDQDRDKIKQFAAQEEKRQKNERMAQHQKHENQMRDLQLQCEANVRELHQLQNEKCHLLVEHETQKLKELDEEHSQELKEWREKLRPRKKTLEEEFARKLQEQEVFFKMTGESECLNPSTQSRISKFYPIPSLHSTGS
Test [7] addresses Receptor tyrosine-protein kinase erbB-4 (Homo sapiens, UniProt Q15303). Format: functional.

Activity calls are given as the source filed them.

Receptor tyrosine-protein kinase erbB-4, sequence (Q15303 whole entry): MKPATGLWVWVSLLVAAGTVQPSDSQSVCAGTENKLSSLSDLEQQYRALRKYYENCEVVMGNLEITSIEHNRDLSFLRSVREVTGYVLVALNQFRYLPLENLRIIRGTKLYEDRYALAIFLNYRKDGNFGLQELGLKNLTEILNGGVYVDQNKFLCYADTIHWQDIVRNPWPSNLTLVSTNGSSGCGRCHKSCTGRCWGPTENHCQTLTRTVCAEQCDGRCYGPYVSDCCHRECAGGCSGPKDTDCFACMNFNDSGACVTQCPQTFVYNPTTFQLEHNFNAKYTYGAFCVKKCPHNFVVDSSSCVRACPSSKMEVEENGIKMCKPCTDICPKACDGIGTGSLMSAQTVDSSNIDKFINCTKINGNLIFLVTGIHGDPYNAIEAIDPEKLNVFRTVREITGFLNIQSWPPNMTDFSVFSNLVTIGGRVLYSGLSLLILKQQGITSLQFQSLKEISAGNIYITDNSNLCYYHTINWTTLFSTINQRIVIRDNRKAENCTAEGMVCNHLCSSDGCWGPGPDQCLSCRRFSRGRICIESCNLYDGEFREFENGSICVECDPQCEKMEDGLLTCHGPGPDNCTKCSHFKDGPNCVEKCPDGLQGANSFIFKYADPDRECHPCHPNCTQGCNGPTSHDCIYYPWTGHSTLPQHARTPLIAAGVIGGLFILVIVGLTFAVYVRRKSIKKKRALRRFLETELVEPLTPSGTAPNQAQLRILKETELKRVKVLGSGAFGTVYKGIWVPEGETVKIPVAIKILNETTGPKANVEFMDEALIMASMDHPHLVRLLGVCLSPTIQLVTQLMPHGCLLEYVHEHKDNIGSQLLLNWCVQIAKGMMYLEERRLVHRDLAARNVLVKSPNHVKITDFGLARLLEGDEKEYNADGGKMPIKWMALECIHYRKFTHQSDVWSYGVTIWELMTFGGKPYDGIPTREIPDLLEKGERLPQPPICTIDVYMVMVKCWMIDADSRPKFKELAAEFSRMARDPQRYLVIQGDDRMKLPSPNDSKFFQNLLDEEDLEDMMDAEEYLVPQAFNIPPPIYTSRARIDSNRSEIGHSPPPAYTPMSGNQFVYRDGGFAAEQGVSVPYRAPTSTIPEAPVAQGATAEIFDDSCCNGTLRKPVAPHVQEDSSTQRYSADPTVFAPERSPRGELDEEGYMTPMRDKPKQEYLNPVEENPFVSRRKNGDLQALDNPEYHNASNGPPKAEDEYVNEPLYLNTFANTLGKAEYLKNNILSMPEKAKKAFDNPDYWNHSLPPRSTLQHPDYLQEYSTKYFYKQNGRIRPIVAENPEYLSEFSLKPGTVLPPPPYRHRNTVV

For orientation: EC50 means the concentration that produces a half-maximal response. As usually defined, the IC50 is the midpoint of a concentration-inhibition curve. By AC50 is commonly meant the concentration giving half of the maximal activity seen. Regarding `CC(/C=C1\SC(=S)N(NS(=O)(=O)c2ccc(C)cc2)C1=O)=C\c1ccccc1`, on Streptokinase A, the EC50 is listed as > 150 µM (not active). In addition, the IC50 in [1] was 43.9 µM (active); in test [2], 3.94 µM (active). For the same molecule, the AC50 in [3] is > 100 µM (inactive).

A word on the Ki: it is the dissociation constant of the complex between target and ligand, obtained from inhibition or displacement. On to `CN1CCC(c2c(O)cc(O)c3c(=O)cc(-c4ccccc4Cl)oc23)C(O)C1` (stereo unspecified), for which the Ki in test [4] was > 10 µM (inactive); in test [5], > 3.98 µM (inactive); at Misshapen-like kinase 1, > 7.94 µM (inactive); in [6], > 10 µM (inactive); in test [7], > 3.98 µM (inactive).

Consider `Cc1ccc(NC2=C(NCCO)C(=O)c3ccccc3C2=O)cc1`, for which the IC50 in test [1] is 11.6 µM (active); in [2], 9.12 µM (active).
